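Tested at 5 concentrations; 48 h exposure; 96-well plates; endpoints linearly interpolated, else capped at highest concentration. GI50 marks 50% less growth.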 Active and inactive are the calls of the source. No stated cut-off is given here; in the data, active = GI50 up to about 1.1 µM and inactive = higher.
Tests used:
Experiment in all cases: NCI tumour cell line growth inhibition, 48 h
HOP-18 = tested on: HOP-18
DMS-273 = tested on: DMS-273
RXF 631 = tested on: RXF 631
LXFL 529 = tested on: LXFL 529
XF498 = tested on: XF498
DMS-114 = tested on: DMS-114
M19-MEL = tested on: M19-MEL
DLD-1 = tested on: DLD-1
SNB-78 = tested on: SNB-78

| SMILES | GI50 (HOP-18) | GI50 (DMS-273) | GI50 (RXF 631) | GI50 (LXFL 529) | GI50 (XF498) | GI50 (DMS-114) | GI50 (M19-MEL) | GI50 (DLD-1) | GI50 (SNB-78) |
| --- | --- | --- | --- | --- | --- | --- | --- | --- | --- |
| COc1ccc(-c2[nH]c3ccccc3c2CCNS(=O)(=O)c2ccc(C)cc2)cc1 | > 7.4 µM (inactive) | 7.48 µM (inactive) | > 8.49 µM (inactive) | > 10 µM (inactive) | > 8.83 µM (inactive) | > 9.55 µM (inactive) | > 8.39 µM (inactive) | 8.09 µM (inactive) | > 10 µM (inactive) |
| CC1CC2C(=O)N(c3ccccc3)C(=O)C2c2[nH]c3ccccc3c21 (configuration not stated) | – | 79.4 µM (inactive) | 34.3 µM (inactive) | 42.5 µM (inactive) | – | 30.7 µM (inactive) | 41.5 µM (inactive) | 89.3 µM (inactive) | > 100 µM (inactive) |
| O=C1CCC(=O)c2ccccc2N1 | > 100 µM (inactive) | > 100 µM (inactive) | – | > 100 µM (inactive) | > 100 µM (inactive) | > 100 µM (inactive) | > 100 µM (inactive) | > 100 µM (inactive) | – |
| CCc1ccccc1NC(=O)C(=O)C(C(=O)c1ccc(OC)cc1)c1ccc(OC)cc1 (configuration not stated) | > 100 µM (inactive) | > 100 µM (inactive) | > 100 µM (inactive) | > 100 µM (inactive) | > 100 µM (inactive) | > 100 µM (inactive) | – | > 100 µM (inactive) | > 100 µM (inactive) |
| Nc1nc2c(ncn2C2OC(CO)C(O)C2O)c(=O)o1 (configuration not stated) | > 100 µM (inactive) | 22.5 µM (inactive) | > 100 µM (inactive) | > 100 µM (inactive) | > 100 µM (inactive) | 67.3 µM (inactive) | > 100 µM (inactive) | > 89.1 µM (inactive) | > 100 µM (inactive) |
| CCOC(=O)N1CCc2cc(OC)c(OC)c3c2C1CC3=O (configuration not stated) | > 100 µM (inactive) | > 100 µM (inactive) | – | > 100 µM (inactive) | – | > 100 µM (inactive) | > 100 µM (inactive) | > 100 µM (inactive) | > 100 µM (inactive) |
| O=C(NCCCCCCCCNC(=O)c1cnc2ccccc2n1)c1cnc2ccccc2n1 | > 100 µM (inactive) | > 100 µM (inactive) | – | > 100 µM (inactive) | > 100 µM (inactive) | > 100 µM (inactive) | > 100 µM (inactive) | > 100 µM (inactive) | > 100 µM (inactive) |
| C=C(CO)CC(O)c1cc(OC)ccc1OC (configuration not stated) | – | > 100 µM (inactive) | – | > 100 µM (inactive) | > 100 µM (inactive) | – | > 100 µM (inactive) | – | – |
| O=C1c2ccccc2C(=O)N1C/C=N/NS(=O)(=O)c1ccc(F)cc1 | – | > 100 µM (inactive) | > 100 µM (inactive) | > 100 µM (inactive) | > 100 µM (inactive) | > 100 µM (inactive) | > 100 µM (inactive) | > 100 µM (inactive) | – |
| OCCN1CCN2C=C(C3CCCC4N(CCO)CCN34)CCC21 (configuration not stated) | > 100 µM (inactive) | 49.2 µM (inactive) | – | 43.8 µM (inactive) | 48.1 µM (inactive) | 25.4 µM (inactive) | 34.7 µM (inactive) | 22.7 µM (inactive) | 37.9 µM (inactive) |
| O=C1CCC(=O)N1CNc1cccc(NCN2C(=O)CCC2=O)c1 | – | 61.1 µM (inactive) | > 100 µM (inactive) | 56.8 µM (inactive) | > 100 µM (inactive) | – | > 100 µM (inactive) | > 100 µM (inactive) | > 100 µM (inactive) |
| CC(=O)Nc1ccc(S(=O)(=O)NN(C)S(=O)(=O)c2ccc(C)cc2)cc1 | – | – | – | – | – | > 100 µM (inactive) | > 100 µM (inactive) | > 100 µM (inactive) | – |
| Cc1ccc(C)c(NC(=O)CC/C(=N\NC(=O)C(N)=O)C(C)C(=O)c2ccc(O)cc2)c1 (configuration not stated) | > 100 µM (inactive) | – | > 100 µM (inactive) | > 100 µM (inactive) | – | > 100 µM (inactive) | > 100 µM (inactive) | > 100 µM (inactive) | > 100 µM (inactive) |
| C=C(C)CCOC(c1ccccc1)(c1ccccc1)c1ccccc1 | – | – | 55.5 µM (inactive) | 45.8 µM (inactive) | 26.1 µM (inactive) | – | 27.9 µM (inactive) | 60.4 µM (inactive) | 70.1 µM (inactive) |
| CCCCCCCCCCCCCC(=O)OCC1OC(n2cc(F)c(=O)[nH]c2=O)C(NC(=O)OCc2ccccc2)C(OC(=O)CCCCCCCCCCCCC)C1O (configuration not stated) | > 100 µM (inactive) | > 100 µM (inactive) | > 100 µM (inactive) | > 100 µM (inactive) | > 100 µM (inactive) | > 100 µM (inactive) | > 100 µM (inactive) | > 100 µM (inactive) | > 100 µM (inactive) |
| Cc1ccc(S(=O)(=O)N2CCC3(C(/C=C/c4ccccc4)=Nc4ccccc43)C2c2ccccc2)cc1 (configuration not stated) | – | > 100 µM (inactive) | – | > 100 µM (inactive) | 63.1 µM (inactive) | > 100 µM (inactive) | > 100 µM (inactive) | > 100 µM (inactive) | > 100 µM (inactive) |
| CN(C)c1ccc(/C=C2\Cc3ccccc3C2=O)cc1Br | – | – | – | 33.8 µM (inactive) | 26.1 µM (inactive) | 29.6 µM (inactive) | 51.1 µM (inactive) | 47.5 µM (inactive) | 59.8 µM (inactive) |
| N#C/C(=C1\OC(=N)C(c2ccc(Cl)cc2)=C1O)c1ccc(Cl)cc1 | 16.9 µM (inactive) | 13.5 µM (inactive) | – | 11.7 µM (inactive) | – | 14.8 µM (inactive) | 15.1 µM (inactive) | 15.3 µM (inactive) | 12.8 µM (inactive) |
| COC(=O)OCC1OC(N2C(=O)NC(=O)C(Br)C2N=[N+]=[N-])CC1OC(=O)OC (configuration not stated) | – | > 100 µM (inactive) | – | > 100 µM (inactive) | > 100 µM (inactive) | > 100 µM (inactive) | > 100 µM (inactive) | > 100 µM (inactive) | > 100 µM (inactive) |
| C=CC[C@H]1C[C@@]2(C)OC[C@H](C(C)C)N2C1=O | > 100 µM (inactive) | > 100 µM (inactive) | – | – | > 100 µM (inactive) | – | > 100 µM (inactive) | – | > 100 µM (inactive) |
| Cn1c(=O)c2c(ncn2CCCCn2ccnc2[N+](=O)[O-])n(C)c1=O | – | > 100 µM (inactive) | – | > 100 µM (inactive) | > 100 µM (inactive) | > 100 µM (inactive) | > 100 µM (inactive) | – | > 100 µM (inactive) |
| C=CC(=O)NCCSCCCOC1(C(=O)O)CC(O)C(NC(C)=O)C(C(O)C(O)CO)O1 (configuration not stated) | – | > 100 µM (inactive) | – | > 100 µM (inactive) | > 100 µM (inactive) | > 100 µM (inactive) | – | > 100 µM (inactive) | > 100 µM (inactive) |
| CC(=O)OC[C@]1(O)CC[C@@]23CC1C[C@@H]2CCC1C(C)(C)CCC[C@@]13C (some centres not stated) | – | 3.65 µM (inactive) | 14.2 µM (inactive) | 11.2 µM (inactive) | 14.1 µM (inactive) | 11.2 µM (inactive) | 16 µM (inactive) | 15.3 µM (inactive) | 16.1 µM (inactive) |
| CC(=O)NC1C(OCc2ccccc2)OC(CO)C(O)C1OC(C)C(=O)NC(C)C(=O)N[C@@H](CCC(=O)OCCCNC1c2ccccc2Nc2cccc([N+](=O)[O-])c21)C(N)=O (some centres not stated) | < 0.01 µM (active) | < 0.01 µM (active) | – | < 0.01 µM (active) | – | – | – | < 0.01 µM (active) | 0.0121 µM (active) |
| COC(=O)C1[C@@H](C(=O)OC)C(=O)O[C@H]1c1cc(OC)c(OC)c(OC)c1 (some centres not stated) | > 100 µM (inactive) | > 100 µM (inactive) | – | > 100 µM (inactive) | – | > 100 µM (inactive) | > 100 µM (inactive) | > 100 µM (inactive) | > 100 µM (inactive) |
| CCCCCCCCCCCCCCCCCC[N+](C)(C)Cc1ccc(C[N+](C)(C)CCCCCCCCCCCCCCCCCC)cc1 | 13 µM (inactive) | 16.1 µM (inactive) | 20.9 µM (inactive) | 2.51 µM (inactive) | – | 9.46 µM (inactive) | 16.9 µM (inactive) | 22.1 µM (inactive) | 18.8 µM (inactive) |
| CCCCCCCCCCCCC(O)C1CCC(C(O)CCCCC(O)CCCCCC2CC(CC(C)=O)C(=O)O2)O1 (configuration not stated) | 11.3 µM (inactive) | 2.21 µM (inactive) | 3.17 µM (inactive) | 2.81 µM (inactive) | 1.82 µM (inactive) | < 0.01 µM (active) | 2.45 µM (inactive) | 6.21 µM (inactive) | 12.5 µM (inactive) |

From ChEMBL document CHEMBL1201862, “PubChem BioAssay data set” (2004)
